Reference: ChEMBL document CHEMBL1158714, “Communiols E-H: new polyketide metabolites from the coprophilous fungus Podospora communis” (J Nat Prod, 2005)
The source made the active and inactive calls.

Key:
Type in all cases: functional, organism-based
Staphylococcus aureus = experiment: Antimicrobial activity against Staphylococcus aureus ATCC 29213 at 200 ug/disk
Bacillus subtilis = experiment: Antimicrobial activity against Bacillus subtilis ATCC 6051 at 200 ug/disk
Candida albicans = experiment: Antimicrobial activity against Candida albicans ATCC 90029 at 200 ug/disk

Measured: Activity

CC[C@H](O)[C@@H]1C[C@H]2CC[C@H](CO)[C@H]2O1
inactive: Staphylococcus aureus | Bacillus subtilis | Candida albicans

CC[C@@H]1O[C@H]1C[C@H]1CC=C(CO)[C@H]1O
inactive: Staphylococcus aureus | Bacillus subtilis | Candida albicans

CC[C@H](O)[C@@H]1C[C@@H](C/C=C/C=O)C(=O)O1
inactive: Staphylococcus aureus | Bacillus subtilis | Candida albicans

CC[C@H](O)[C@@H]1C[C@H]2CC=C(CO)[C@H]2O1
inactive: Staphylococcus aureus | Bacillus subtilis | Candida albicans
